Measurements published in patent US20240376097A1, “BCL-2 Inhibitor” (BeiGene Ltd., priority 2020, published 2024).
Read-outs that look alike come from different tables or passages of the source.

Columns and labels:
[1] = tested on: RS4;11 (BCL-2 dependent acute lymphoblastic leukemia cell line); assay: RS4;11 Cell Proliferation Assay; type: cell-based; settings: Homo sapiens, RS4-11, RS4;11 cells, read-out: Cellular proliferation assay (IC50, nM) RS4
Method in brief: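 RS4;11 cells, 50,000 per well in RPMI-1640 with 10% FBS, treated 48 h at 37 °C with a 10-point dilution series topping at 1 μM. Viability read by CellTiter-Glo ATP luminescence; mean IC50 reported.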

[2] = tested on: BCL-2 G101V knock-in cell line H96 (derive from RS4;11); assay: Bcl 2-G101V Knock-In RS4;11 Cell Proliferation Assay; type: cell-based; settings: Homo sapiens, RS4;11 Bcl-2 G101V knock-in clone H96, 48 hrs, CellTiter-GLO, read-out: Cellular proliferation assay (IC50, nM) RS4
Method in brief: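 H96, a CRISPR-generated RS4;11 clone carrying BCL2-G101V knock-in (WES/RNA-seq validated), seeded 50,000 per well and exposed 48 h at 37 °C to 10-point dilutions topping at 1 or 10 μM. Viability by CellTiter-Glo luminescence; mean IC50.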

[3] = target: recombinant human Bcl-2 D103Y protein (Homo sapiens (Human), UniProt P10415, D103Y); assay: Bcl-2-D103Y Biochemical Assay (TR-FRET); type: binding; settings: for IC50: TR-FRET, FITC labeled Bak peptide; for Ratio of Bcl-2 D103Y/Bcl-2 WT: ratio of IC50
Method in brief: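 Recombinant human Bcl-2 D103Y binding to its ligand measured by TR-FRET (ex 337 nm, em 490/520 nm) with increasing compound concentrations. Percent inhibition from the 490/520 nm ratio; IC50 from four-parameter logistic fit.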

[4] = target: Recombinant human Bcl-2 protein (Homo sapiens (Human), UniProt P10415); assay: Bcl-2 TR-FRET Assay; type: binding
Method in brief: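 0.05 nM recombinant Bcl-2 preincubated 0.5 h at room temperature with 10-point compound dilutions (top final 1, 0.1, 0.02 or 0.01 uM) in pH 7.5 phosphate buffer. FITC-Bak peptide (0.5 nM) and anti-6His Tb cryptate then added for 1 h. TR-FRET read; IC50 from four-parameter logistic fit.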

[5] = target: recombinant human Bcl-2-G101V protein (Homo sapiens (Human), UniProt P10415, G101V); assay: Bcl-2-G101V TR-FRET Assay; type: binding; settings: Bcl-2 G101V mutant, TR-FRET; read-out: Biochemical assay (IC50, nM) Bcl-2 G101V
Method in brief: (§1)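 Measures how compounds block Bcl-2-G101V engaging its ligand, by TR-FRET with 337 nm excitation and a 490/520 nm emission ratio; dose-response data give IC50 via a four-parameter logistic model.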

[6] = tested on: recombinant human Bcl-2-G101V protein; assay: Bcl-2-G101V TR-FRET Assay; type: binding; settings: ratio of biochemical IC50 Bcl-2 G101V / Bcl-2 WT
Method in brief: as §1

[7] = Bcl-2 wild type, TR-FRET, read-out: Biochemical assay (IC50, nM) Bcl-2 WT
[8] = wild type Bcl-2, unit inferred, read-out: Bcl-2 WT

| SMILES | IC50 [1] | IC50 [2] | IC50 [3] | Ratio of Bcl-2 D103Y/Bcl-2 WT [3] | IC50 [4, 7] | IC50 [4, 8] | IC50 [5] | Ratio of Bcl-2 G101V/WT [6] |
| --- | --- | --- | --- | --- | --- | --- | --- | --- |
| CC(C)c1ccccc1[C@@H]1CN(Cc2ccc3c(c2)OCCC3)CCN1C1CC2(CCN(c3ccc(C(=O)NS(=O)(=O)c4ccc(NC[C@H]5CC[C@](C)(O)CC5)c([N+](=O)[O-])c4)c(Oc4cnc5[nH]ccc5c4)c3)CC2)C1 [Example 282] | 0.36 nM | 4.2 nM | 0.47 nM | 1.9 | 0.25 nM | 0.25 nM | 0.97 nM | 3.9 |
| COc1ccc(CN2CCN(C3CC4(CCN(c5ccc(C(=O)NS(=O)(=O)c6ccc(NC[C@H]7CC[C@](C)(O)CC7)c([N+](=O)[O-])c6)c(Oc6cnc7[nH]ccc7c6)c5)CC4)C3)C(c3ccccc3C(C)C)C2)cc1OC (stereo partly drawn) [Example 81, 2-((1H-pyrrolo[2,3-b]pyridin-5-yl)oxy)-4-(2-(4-(3,4-dimethoxybenzyl)-2-(2-isopropylphenyl)piperazin-1-yl)-7-azaspiro[3.5]nonan-7-yl)-N-((4-((((1r,4r)-4-hydroxy-4-methylcyclohexyl)methyl)amino)-3-nitrophenyl)sulfonyl)benzamide] | 0.286 nM | 0.878 nM | 0.084 nM | 2.2 | 0.038 nM | 0.038 nM | 0.2 nM | 5.2 |
| COc1ccc(CN2CCN(C3CC4(CCN(c5ccc(C(=O)NS(=O)(=O)c6ccc(NCC7(F)CCC(C)(O)CC7)c([N+](=O)[O-])c6)c(Oc6cnc7[nH]ccc7c6)c5)CC4)C3)[C@H](c3ccccc3C(C)C)C2)cc1 (stereo partly drawn) [Example 225, (R)-2-((1H-pyrrolo[2,3-b]pyridin-5-yl)oxy)-N-((4-(((1-fluoro-4-hydroxy-4-methylcyclohexyl)methyl)amino)-3-nitrophenyl)sulfonyl)-4-(2-(2-(2-isopropylphenyl)-4-(4-methoxybenzyl)piperazin-1-yl)-7-azaspiro[3.5]nonan-7-yl) benzamide] | 0.13 nM | 0.65 nM | 0.1 nM | 1.1 | 0.092 nM | 0.092 nM | 0.37 nM | 4 |
| COc1cc(CN2CCN(C3CC4(C3)CN(c3ccc(C(=O)NS(=O)(=O)c5ccc(NC[C@H]6CC[C@](C)(O)CC6)c([N+](=O)[O-])c5)c(Oc5cnc6[nH]cc(F)c6c5)c3)C4)[C@H](c3ccccc3C(C)C)C2)cc2ccoc12 [Example 306, 2-((3-fluoro-1H-pyrrolo[2,3-b]pyridin-5-yl)oxy)-N-((4-((((1r,4r)-4-hydroxy-4-methylcyclohexyl)methyl)amino)-3-nitrophenyl)sulfonyl)-4-(6-((R)-2-(2-isopropylphenyl)-4-((7-methoxybenzofuran-5-yl)methyl)piperazin-1-yl)-2-azaspiro[3.3]heptan-2-yl)benzamide] | 0.12 nM | 0.15 nM | 0.31 nM | 1.0 | 0.31 nM | 0.31 nM | 0.97 nM | 3.1 |
| CC(C)c1ccccc1C1CN(CCc2ccccc2)CCN1C1CC2(CCN(c3ccc(C(=O)NS(=O)(=O)c4ccc(NC[C@H]5CC[C@](C)(O)CC5)c([N+](=O)[O-])c4)c(Oc4cnc5[nH]ccc5c4)c3)CC2)C1 (stereo partly drawn) [Example 26, 2-((1H-pyrrolo[2,3-b]pyridin-5-yl)oxy)-N-((4-((((1r,4r)-4-hydroxy-4-methylcyclohexyl)methyl)amino)-3-nitrophenyl)sulfonyl)-4-(2-(2-(2-isopropylphenyl)-4-phenethylpiperazin-1-yl)-7-azaspiro[3.5]nonan-7-yl)benzamide] | 0.85 nM | 8.48 nM | 0.51 nM | 4.7 | 0.11 nM | 0.11 nM | 1.4 nM | 12.7 |
| CC(C)c1ccccc1C1CN(C2CCOCC2)CCN1C1CC2(CCN(c3ccc(C(=O)NS(=O)(=O)c4ccc(NC[C@H]5CC[C@](C)(O)CC5)c([N+](=O)[O-])c4)c(Oc4cnc5[nH]ccc5c4)c3)CC2)C1 (stereo partly drawn) [Example 10, 2-((1H-pyrrolo[2,3-b]pyridin-5-yl)oxy)-N-((4-((((1r,4r)-4-hydroxy-4-methylcyclohexyl)methyl)amino)-3-nitrophenyl)sulfonyl)-4-(2-(2-(2-isopropylphenyl)-4-(tetrahydro-2H-pyran-4-yl)piperazin-1-yl)-7-azaspiro[3.5]nonan-7-yl)benzamide] | 0.42 nM | 3.16 nM | 0.12 nM | 10 | 0.012 nM | 0.012 nM | 0.21 nM | 17.5 |
| COc1cc(CN2CCN(C3CC4(CCN(c5ccc(C(=O)NS(=O)(=O)c6ccc(NC[C@H]7CC[C@](C)(O)CC7)c([N+](=O)[O-])c6)c(Oc6cnc7[nH]ccc7c6)c5)CC4)C3)[C@H](c3ccccc3C(C)C)C2)cc2c1OCC2 [Example 239, 2-((1H-pyrrolo[2,3-b]pyridin-5-yl)oxy)-N-((4-((((1r,4r)-4-hydroxy-4-methylcyclohexyl)methyl)amino)-3-nitrophenyl)sulfonyl)-4-(2-((R)-2-(2-isopropylphenyl)-4-((7-methoxy-2,3-dihydrobenzofuran-5-yl)methyl)piperazin-1-yl)-7-azaspiro[3.5]nonan-7-yl)benzamide] | 0.12 nM | 0.29 nM | 0.12 nM | 1.5 | 0.076 nM | 0.076 nM | 0.2 nM | 2.6 |
| CCOc1ccc(CN2CCN(C3CC4(CCN(c5ccc(C(=O)NS(=O)(=O)c6ccc(NC[C@H]7CC[C@](C)(O)CC7)c([N+](=O)[O-])c6)c(Oc6cnc7[nH]ccc7c6)c5)CC4)C3)C(c3ccccc3C(C)C)C2)cc1 (stereo partly drawn) [Example 40, 2-((1H-pyrrolo[2,3-b]pyridin-5-yl)oxy)-4-(2-(4-(4-ethoxybenzyl)-2-(2-isopropylphenyl)piperazin-1-yl)-7-azaspiro[3.5]nonan-7-yl)-N-((4-((((1r,4r)-4-hydroxy-4-methylcyclohexyl)methyl)amino)-3-nitrophenyl)sulfonyl)benzamide] | 0.85 nM | 8.4 nM | 0.72 nM | 3.8 | 0.19 nM | 0.19 nM | 1.3 nM | 6.8 |
| CC(C)c1ccccc1C1CN(CC23CC(C2)C3)CCN1C1CC2(CCN(c3ccc(C(=O)NS(=O)(=O)c4ccc(NC[C@H]5CC[C@](C)(O)CC5)c([N+](=O)[O-])c4)c(Oc4cnc5[nH]ccc5c4)c3)CC2)C1 (stereo partly drawn) [Example 18, 2-((1H-pyrrolo[2,3-b]pyridin-5-yl)oxy)-4-(2-(4-(bicyclo[1.1.1]pentan-1-ylmethyl)-2-(2-isopropylphenyl)piperazin-1-yl)-7-azaspiro[3.5]nonan-7-yl)-N-((4-((((1r,4r)-4-hydroxy-4-methylcyclohexyl)methyl)amino)-3-nitrophenyl)sulfonyl)benzamide] | 0.61 nM | 4.9 nM | 0.43 nM | 5.4 | 0.079 nM | 0.079 nM | 0.71 nM | 9.0 |
